Structures can show the parent of a compound that is named as a salt. Where two headings read alike, the source gives them in different places.
Columns and labels:
rat NR1/NR2B receptor = rat NR1/NR2B receptor (Rattus norvegicus (Rat), UniProt P35439+Q00960); assay: NR2B binding assay: inhibition of specific [3H]-Ifenprodil binding to the rat NR1/NR2B receptor; settings: [3H]-Ifenprodil binding, rat brain membranes; for inhibition at 1 µM: 1 μM test compound, read-out: % INH @ 1 μM; for inhibition at 10 µM: 10 μM test compound, read-out: % INH @ 10 μM
Procedure: Biological Assays Inhibition of Specific Binding to the Rat NR1/NR2B Receptor
Male Wistar rats (180 to 200 g) were killed by suffocation in a CO2 chamber for two minutes. Whole brains without cerebellum were removed and dissected on ice, placed into closed vials and stored at −70° C.
Membrane fractions were prepared and tested using standard techniques. At the time of the assay, 1 g of the brains was placed into 25 ml of 50 mM Tris/10 mM EDTA buffer, pH 7.1, (25 vol. per g of original tissue) and homogenized for 30 sec at 20000 rpm with an Ultraturrax T25 (Jahnke & Kunkel, IKA-Labortechnik, Staufen, Germany).
The supernatant was discarded and the pellet was homogenized on ice for 30 sec at 20000 rpm with an Ultraturrax and again centrifuged at 48000 g for 30 minutes at 4° C. The resultant pellet was resuspended in 25 ml of 50 mM Tris/10 mM EDTA buffer, homogenized for 30 sec with an Ultraturrax, aliquoted, frozen at −70° C. and stored until use.
After thawing on the day of the assay, a 5 ml membrane aliquot was centrifuged at 48000 g for 30 min at 4° C. The pellet was resuspended in 5 ml of 5 mM Tris/1 mM EDTA buffer, pH 7.4, homogenized for 30 sec at 20000 rpm with an Ultraturrax and centrifuged at 48000 g for 30 min at 4° C. This was repeated twice. The final pellet was homogenized in 5 ml of 5 mM Tris/1 mM EDTA buffer at 4° C. with an Ultraturrax and used for the Ifenprodil-binding assay as described in the following.
Nonspecific binding was estimated in the presence of […] CP101.606. The samples were incubated for 60 min. at 4° C.
The incubation was terminated by filtration of the membrane preparations using Filtermat B (Pharmacia, Uppsala Sweden) and a Micro Cell Harvester (Skatron, Lier, Norway). The Filtermat B had been presoaked with 1% polyethylene imine and carefully washed with 50 mM Tris/HCl-buffer pH 7.7 after the filtration to separate free and bound radioactivity.
The optimal amount of membrane preparation in the assay was determined and optimized for each membrane preparation separately before the test.
For pipetting of the incubation mixture the robot Biomek2000 (Fa. Beckman) was used.
For determination of IC50 values the Hill-plot, 2-parameter-model was used.

hERG receptor = hERG receptor (Homo sapiens (Human), UniProt Q12809); assay: HERGBD: inhibition of specific [3H]-Dofetilide binding to the hERG receptor
Procedure: Inhibition of Specific Binding to the hERG—Receptor (HERGBD)
A HEK cell line with stable transfected human ERG receptor was used for the assay. The cells were grown adherently and maintained in DULBECCOS' MEM medium with 10% FBS, 1% non-essential amino acids, 1% Penicillin/Streptomycin and 400 μg/ml G418 (Calbiochem).
For binding assays and membrane preparations the cell culture medium was removed, cells were washed with PBS. Crude membranes for radioligand binding experiments were prepared by scraping the cells off the dishes in ice cold 20 mM HEPES/0.1 mM KCl/pH 7.2. The cell suspension was homogenized on ice (Ultra turrax, 3×20 sec.) and the homogenate was spun for 10 min (1° C., 1000 g, OPTIMA, SW28, 2800 U/min). The supernatant was than centrifuged for 40 min at 100000 g (1° C., OPTIMA, SW28, 23000 U/min). The membrane pellet was re-suspended in 20 mM HEPES/0.1 mM KCl pH 7.2, frozen and stored at −80° C.
After thawing on the day of the assay, the membrane suspension was diluted further with 20 mM HEPES/0.1 mM KCl/pH 7.2.
The incubation mixture of 200 μl contained 1.5 nmol/l 3H-Dofetilide, optimized amount of membrane preparation, 20 mM HEPES/0.1 mM KCl/(pH 7.2) and inhibitor in 1% DMSO. Nonspecific binding was estimated in the presence of […] Dofetilide. The samples were incubated for 90 min. at RT.
Binding was terminated by filtration of the incubated membrane preparations using Filtermat B (Pharmacia, Uppsala Sweden) and a Micro Cell Harvester (Skatron, Lier, Norway). The Filtermat B had been presoaked with 1% polyethylen imine and carefully washed with 0.05 M Tris/HCl-buffer pH=7.7 after the filtration to separate free and bound radioactivity. The filters were counted in a scintillation counter (Betaplate 1205, Berthold, Wildbad, Germany) in order to determine the specific binding of [^3H]-Dofetilide.
The optimal amount of membrane preparation in the assay was determined and optimized for each membrane preparation separately in front of using the membranes in compound testing.
For pipetting of the incubation mixture we routinely use the robot Biomek2000 (Fa. Beckman).

[1] = [3H]-Dofetilide binding, membranes of HEK cells with human ERG receptor, read-out: IC50

rat NR1/NR2B receptor, sequence (Q00960 27-1482, other chains not shown): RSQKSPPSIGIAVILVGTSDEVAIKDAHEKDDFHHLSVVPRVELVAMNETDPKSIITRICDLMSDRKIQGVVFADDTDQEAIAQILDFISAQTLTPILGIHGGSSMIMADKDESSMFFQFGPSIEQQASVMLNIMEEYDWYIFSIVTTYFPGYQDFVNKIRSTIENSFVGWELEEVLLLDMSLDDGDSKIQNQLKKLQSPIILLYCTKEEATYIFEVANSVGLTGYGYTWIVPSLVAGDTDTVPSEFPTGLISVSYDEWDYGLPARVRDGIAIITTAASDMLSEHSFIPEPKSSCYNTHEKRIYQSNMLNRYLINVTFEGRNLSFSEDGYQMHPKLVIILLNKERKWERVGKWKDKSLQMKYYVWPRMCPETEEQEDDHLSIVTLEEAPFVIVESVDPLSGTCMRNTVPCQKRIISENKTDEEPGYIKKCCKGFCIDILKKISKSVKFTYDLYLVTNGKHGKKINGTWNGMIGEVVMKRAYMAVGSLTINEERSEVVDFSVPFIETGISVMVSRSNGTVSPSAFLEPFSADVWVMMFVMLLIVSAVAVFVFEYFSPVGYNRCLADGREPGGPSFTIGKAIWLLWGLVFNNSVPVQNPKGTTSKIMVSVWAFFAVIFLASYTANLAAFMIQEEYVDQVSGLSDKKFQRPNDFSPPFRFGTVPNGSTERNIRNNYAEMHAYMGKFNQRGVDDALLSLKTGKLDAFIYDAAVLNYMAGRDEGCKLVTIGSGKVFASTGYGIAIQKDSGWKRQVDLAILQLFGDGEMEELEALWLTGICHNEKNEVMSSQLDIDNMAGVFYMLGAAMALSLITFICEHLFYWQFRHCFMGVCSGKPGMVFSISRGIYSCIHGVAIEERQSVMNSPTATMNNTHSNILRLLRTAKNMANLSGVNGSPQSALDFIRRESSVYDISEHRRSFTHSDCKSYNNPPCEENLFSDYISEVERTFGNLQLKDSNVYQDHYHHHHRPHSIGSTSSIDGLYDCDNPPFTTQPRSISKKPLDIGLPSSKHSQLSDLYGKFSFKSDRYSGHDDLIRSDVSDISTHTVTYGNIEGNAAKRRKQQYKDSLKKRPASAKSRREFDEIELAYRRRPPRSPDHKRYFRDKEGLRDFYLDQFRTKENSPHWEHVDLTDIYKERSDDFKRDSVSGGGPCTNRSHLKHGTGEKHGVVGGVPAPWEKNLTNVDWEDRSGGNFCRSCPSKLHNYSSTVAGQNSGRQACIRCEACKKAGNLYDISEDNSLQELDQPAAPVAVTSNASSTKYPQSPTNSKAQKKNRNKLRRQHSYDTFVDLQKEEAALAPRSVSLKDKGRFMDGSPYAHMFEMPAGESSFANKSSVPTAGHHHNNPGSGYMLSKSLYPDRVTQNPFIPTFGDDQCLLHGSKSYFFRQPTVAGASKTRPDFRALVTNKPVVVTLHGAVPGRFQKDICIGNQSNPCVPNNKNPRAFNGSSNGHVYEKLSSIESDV
hERG receptor, sequence (Q12809 whole entry): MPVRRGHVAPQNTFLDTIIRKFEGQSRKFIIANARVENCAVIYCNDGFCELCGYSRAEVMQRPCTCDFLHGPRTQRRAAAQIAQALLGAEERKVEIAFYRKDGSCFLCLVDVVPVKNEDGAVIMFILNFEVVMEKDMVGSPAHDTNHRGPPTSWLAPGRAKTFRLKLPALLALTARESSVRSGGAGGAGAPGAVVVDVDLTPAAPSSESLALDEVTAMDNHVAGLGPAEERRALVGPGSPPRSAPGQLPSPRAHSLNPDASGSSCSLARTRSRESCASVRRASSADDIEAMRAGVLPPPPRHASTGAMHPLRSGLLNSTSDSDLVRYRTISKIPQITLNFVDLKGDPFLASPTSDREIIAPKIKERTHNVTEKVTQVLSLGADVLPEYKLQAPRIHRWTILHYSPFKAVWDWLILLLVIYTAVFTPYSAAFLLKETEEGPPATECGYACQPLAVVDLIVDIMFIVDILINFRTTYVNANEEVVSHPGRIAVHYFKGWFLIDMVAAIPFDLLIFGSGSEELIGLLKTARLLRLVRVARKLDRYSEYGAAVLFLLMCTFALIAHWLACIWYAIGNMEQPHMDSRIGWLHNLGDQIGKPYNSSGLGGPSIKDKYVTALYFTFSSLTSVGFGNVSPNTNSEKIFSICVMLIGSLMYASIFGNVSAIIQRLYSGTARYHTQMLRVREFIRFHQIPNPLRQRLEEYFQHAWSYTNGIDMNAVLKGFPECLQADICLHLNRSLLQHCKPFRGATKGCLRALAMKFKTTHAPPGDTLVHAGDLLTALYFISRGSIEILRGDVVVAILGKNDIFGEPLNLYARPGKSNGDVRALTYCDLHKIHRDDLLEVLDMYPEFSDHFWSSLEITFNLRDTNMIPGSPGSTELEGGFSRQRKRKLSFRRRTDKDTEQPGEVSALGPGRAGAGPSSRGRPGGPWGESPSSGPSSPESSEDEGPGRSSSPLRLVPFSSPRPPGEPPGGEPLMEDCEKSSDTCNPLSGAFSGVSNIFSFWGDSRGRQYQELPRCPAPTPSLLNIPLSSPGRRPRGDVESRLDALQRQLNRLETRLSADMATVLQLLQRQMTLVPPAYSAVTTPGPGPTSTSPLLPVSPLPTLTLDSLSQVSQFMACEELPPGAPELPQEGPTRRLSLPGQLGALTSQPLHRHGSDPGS

inhibition at 1 µM (rat NR1/NR2B receptor) | inhibition at 10 µM (rat NR1/NR2B receptor) | Compound | IC50 (rat NR1/NR2B receptor) | IC50 (hERG receptor) | IC50 (hERG receptor; [1])
– | – | c1cc(-c2cnn(Cc3cc[nH]n3)c2)cc(C2CC2)c1 [Example 69, 4-(3-cyclopropylphenyl)-1-(1H-pyrazol-3-ylmethyl)pyrazole Succinate] | 0.831 µM | > 100 µM | –
– | – | Cc1cc(Cn2cc(-c3ccc(F)c(Cl)c3)cn2)n(C)n1 [Example 62, 5-[[4-(3-chloro-4-fluoro-phenyl)pyrazol-1-yl]methyl]-1,3-dimethyl-pyrazole] | 0.857 µM | 41.9 µM | –
– | – | Cc1cc(Cn2cc(-c3ccc(Cl)c(C(F)(F)F)c3)cn2)n(C)n1 [Example 29, 5-[[4-[4-chloro-3-(trifluoromethyl)phenyl]pyrazol-1-yl]methyl]-1,3-dimethyl-pyrazole Succinate] | 2.54 µM | 17.9 µM | –
3.8% | 10.9% | Cc1cc(Cn2cc(-c3ccccc3)cn2)n(C)n1 [Example 86, 1,3-Dimethyl-5-[(4-phenylpyrazol-1-yl)methyl]pyrazole] | – | – | –
15.1% | 16% | COc1cc(F)ccc1-c1cnn(Cc2ccn(C)n2)c1 [Example 67, 3-[[4-(4-fluoro-2-methoxy-phenyl)pyrazol-1-yl]methyl]-1-methyl-pyrazole Succinate] | – | – | 63.3 µM
2.7% | – | CCC(CC)n1ccc(Cn2cc(-c3ccc(Cl)c(OC(F)F)c3)cn2)n1 [Example 11, 3-[[4-[4-Chloro-3-(difluoromethoxy)phenyl]pyrazol-1-yl]methyl]-1-(1-ethylpropyl)pyrazole] | – | – | 12.7 µM
– | – | Cn1nccc1Cn1cc(-c2ccc(Cl)c(OC(F)F)c2)cn1 [Example 5, 4-[4-Chloro-3-(difluoromethoxy)phenyl]-1-[(2-methylpyrazol-3-yl)methyl]pyrazole] | 0.148 µM | 64.3 µM | –
– | – | Cc1cc(Cn2cc(-c3cc(F)cc(F)c3)cn2)n(C)n1 [Example 83, 5-[[4-(3,5-difluorophenyl)pyrazol-1-yl]methyl]-1,3-dimethyl-pyrazole] | 6.02 µM | – | –
– | – | FC(F)Oc1cccc(-c2cnn(Cc3cc[nH]n3)c2)c1 [Example 94, 3-[[4-(3-(difluoromethoxy)-phenyl)pyrazol-1-yl]methyl]-1H-pyrazole Maleate] | 0.279 µM | – | 120 µM
– | – | Cc1cc(Cn2cc(-c3ccc(Cl)c(OC(F)F)c3)cn2)n(C)n1 [Example 3, 5-[[4-[4-Chloro-3-(difluoromethoxy)phenyl]pyrazol-1-yl]methyl]-1,3-dimethyl-pyrazole] | 0.146 µM | – | 23.3 µM
– | – | Cn1ccc(Cn2cc(-c3cccc(Br)c3)cn2)n1 [Example 82, 3-[[4-(3-bromophenyl)pyrazol-1-yl]methyl]-1-methyl-pyrazole Succinate] | 2.62 µM | – | –
14.6% | 45.7% | Cn1ccc(Cn2cc(-c3cc(F)cc(F)c3)cn2)n1 [Example 84, 3-[[4-(3,5-difluorophenyl)pyrazol-1-yl]methyl]-1-methyl-pyrazole] | – | – | –
– | – | Cc1ccc(-c2cnn(Cc3ccn(C)n3)c2)cc1F [Example 53, 3-[[4-(3-fluoro-4-methyl-phenyl)pyrazol-1-yl]methyl]-1-methyl-pyrazole Succinate] | 3.84 µM | – | –
22.5% | 25.3% | Cn1ccc(Cn2cc(-c3ccccc3)cn2)n1 [Example 85, 1-methyl-3-[(4-phenylpyrazol-1-yl)methyl]pyrazole] | – | – | –
– | – | Cc1cc(Cn2cc(-c3ccc(F)c(C)c3)cn2)n(C)n1 [Example 54, 5-[[4-(4-fluoro-3-methyl-phenyl)pyrazol-1-yl]methyl]-1,3-dimethyl-pyrazole Succinate] | – | – | > 100 µM
– | – | Cn1ccc(Cn2cc(-c3ccc(Br)cc3)cn2)n1 [Example 79, 3-[[4-(4-bromophenyl)pyrazol-1-yl]methyl]-1-methyl-pyrazole] | 4.72 µM | – | –

Compound | inhibition at 1 µM (rat NR1/NR2B receptor) | inhibition at 10 µM (rat NR1/NR2B receptor) | IC50 (rat NR1/NR2B receptor) | IC50 (hERG receptor) | IC50 (hERG receptor; [1])
Cc1cc(Cn2cc(-c3ccccn3)cn2)n(C)n1 [Example 105, 2-(1-((1,3-dimethyl-1H-pyrazol-5-yl)methyl)-1H-pyrazol-4-yl)pyridine Succinate] | -1.3% | 4.4% | – | – | –

Source: US10155727B2, “Pyrazoles” (Janssen Pharmaceuticals, Inc., priority 2014, dated 2018)
